The target in one data set is HIV-1 PR (Human immunodeficiency virus type 1 group M subtype B, UniProt P04585). Description: HIV-protease inhibitory activity assay (FRET peptide substrate). It is filed as biochemical. As to conditions: Test Example 1. Summed up:
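Fluorescence recovery at ex 485/em 535 nm reports cleavage of a quenched FRET peptide (2 μmol/L final) by 0.83 ng enzyme over 60 minutes at room temperature. Buffer was NaAc pH 4.8 with NaCl, EDTA, DTT and Tween 20. IC50 values came from four-parameter logistic regression of % inhibition.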

A short description of data set [1]: Protein binding test (equilibrium dialysis, unbound ratio fu in serum). It is filed as in vitro ADME. As to conditions: rat serum, equilibrium dialysis 24 hours, 37° C., 2 μg/mL. In a few lines: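 Compound at 2 μg/mL in serum was dialysed against PBS for 24 hours at 37° C. Both sides were quantified by LC/MS/MS, and fu was taken as the PBS concentration divided by the serum concentration.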
(In general: In equilibrium dialysis free small molecules cross a membrane that holds back macromolecules.)

A short description of data set [2]: Evaluation of total body clearance (CLtot), intravenous administration. It is filed as in vivo, Sprague-Dawley (SD). As to conditions: rat (SD), intravenous administration 0.5-10 mg/kg; CLtot = dose/AUC. In a few lines:
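Compounds given as a single tail-vein injection at 0.5-10 mg/kg (n=2-3), dose varying by compound. Plasma sampled at scheduled times and measured by LC/MS/MS; CLtot derived as dose divided by AUC from pharmacokinetic analysis.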

The structures appear in SMILES notation.

For `COc1ccc(S(=O)(=O)N(CC(C)C)CC(O)C(Cc2ccc(NCc3cc(F)ccc3-c3sc4c(c3C(=O)O)CC(C)(C)CC4)cc2)NC(=O)OC2COC3(C)OCCC23)cc1` (stereo not drawn) [Compound I-271], the IC50 against HIV-1 PR is 2.23 nM. Moreover, in data set [1], the rat_fu is on record as <0.1%. This compound also came in with a rat_CLt in data set [2] of 2.42 mL/min/kg.
Regarding `COc1ccc(S(=O)(=O)N(CC(C)C)CC(O)C(Cc2ccc(NCc3ccc(C)cc3-c3sc4c(c3C(=O)O)CC(C)(C)CC4)cc2)NC(=O)OC2COC3(C)OCCC23)cc1` (stereo not drawn) [Compound I-272], 2.11 nM corresponded to half-maximal inhibition at HIV-1 PR (IC50). Also, in data set [1], the rat_fu was <0.1%. The compound also had a rat_CLt in data set [2] of 0.715 mL/min/kg.
Take `COc1ccc(S(=O)(=O)N(CC(C)C)CC(O)C(Cc2ccc(NCc3ccc(OC)cc3-c3sc4c(c3C(=O)O)CC(C)(C)CC4)cc2)NC(=O)OC2COC3(C)OCCC23)cc1` (stereo not drawn) [Compound I-274]: the IC50 against HIV-1 PR was 2.11 nM. The rat_fu in data set [1] is on record as <0.1%. For the same compound, in data set [2], the rat_CLt is 0.659 mL/min/kg.
In the same order, the values of `COc1ccc(S(=O)(=O)N(CC(C)C)CC(O)C(Cc2ccc(NCc3ccc(F)cc3-c3sc4c(c3C(=O)O)CC(C)(C)CC4)cc2)NC(=O)OC2COC3(C)OCCC23)cc1` (stereo not drawn) [Compound I-275] are 2.11 nM, <0.1% and 2.12 mL/min/kg.
For the compound `COc1ccc(S(=O)(=O)N(CC(C)C)CC(O)C(Cc2ccc(NCc3cccc(F)c3-c3sc4c(c3C(=O)O)CC(C)(C)CC4)cc2)NC(=O)OC2COC3(C)OCCC23)cc1` (stereo not drawn) [Compound I-277], on HIV-1 PR, the IC50 amounted to 1.94 nM. Besides, the rat_fu in data set [1] was <0.1%. This compound also showed a rat_CLt in data set [2] of 0.512 mL/min/kg.
The corresponding values for `COc1ccc(S(=O)(=O)N(CC(C)C)CC(O)C(Cc2ccc(NCc3cccc(-c4sc5c(c4C(=O)O)CC(C)(C)CC5)c3C)cc2)NC(=O)OC2COC3(C)OCCC23)cc1` (stereo not drawn) [Compound I-292] are 2.68 nM, <0.1% and 0.166 mL/min/kg.
As for `COc1ccc(S(=O)(=O)N(CC(C)C)CC(O)C(Cc2ccc(NCc3ncc(-c4sc5c(c4C(=O)O)CC(C)(C)CC5)s3)cc2)NC(=O)OC2COC3(C)OCCC23)cc1` (stereo not drawn) [Compound I-297], on HIV-1 PR, the midpoint of inhibition, the IC50, lay at 1.82 nM. In data set [1], the rat_fu was <0.1%. The rat_CLt in data set [2] was determined as 3.54 mL/min/kg.
`COc1ccc(S(=O)(=O)N(CC(C)C)CC(O)C(Cc2ccc(NCC3(O)CCCC3c3sc4c(c3C(=O)O)CC(C)(C)CC4)cc2)NC(=O)OC2COC3(C)OCCC23)cc1` (stereo not drawn) [Compound I-334] registered an IC50 on HIV-1 PR of 1.91 nM. In data set [1], the rat_fu is reported as <0.1%. The compound also showed a rat_CLt in data set [2] of 3.87 mL/min/kg.
`CCCCCN(Cc1ccccc1-c1sc2c(c1C(=O)O)CC(C)(C)CC2)c1ccc(CC(NC(=O)OC2COC3(C)OCCC23)C(O)CN(CC(C)C)S(=O)(=O)c2ccc(OC)cc2)cc1` (stereo not drawn) [Compound I-338]: the IC50 against HIV-1 PR was 4.7 nM. The rat_fu in data set [1] is given as <0.1%. This compound also showed a rat_CLt in data set [2] of 5.7 mL/min/kg.
In turn, `COc1ccc(S(=O)(=O)N(CC(C)C)CC(O)C(Cc2ccc(OC3CCC(c4ccc(C(F)(F)F)cc4-c4sc5c(c4C(=O)O)CC(C)(C)CC5)C3)cc2)NC(=O)OC2COC3(C)OCCC23)cc1` (stereo not drawn) [Compound I-343] gave an IC50 against HIV-1 PR of 15.9 nM. The rat_fu in data set [1] is listed as <0.1%. The compound further displayed a rat_CLt in data set [2] of 3.31 mL/min/kg.
In turn, `COc1ccc(S(=O)(=O)N(CC(C)C)CC(O)C(Cc2ccc(N(C)CC3=C(c4sc5c(c4C(=O)O)CC(C)(C)CC5)CCC3)cc2)NC(=O)OC2COC3(C)OCCC23)cc1` (stereo not drawn) [Compound I-347] came in with an IC50 on HIV-1 PR of 4.4 nM. Also, the rat_fu in data set [1] was <0.1%. Besides, the rat_CLt in data set [2] stood at 5.18 mL/min/kg.
The compound `COc1ccc(S(=O)(=O)N(CC(C)C)CC(O)C(Cc2ccc(N(C)Cc3ccccc3-n3nc4c(c3C(=O)O)CC(C)(C)CC4)cc2)NC(=O)OC2COC3(C)OCCC23)cc1` (stereo not drawn) [Compound I-349] returned a half-maximal inhibitory concentration (IC50) against HIV-1 PR of 2.33 nM. Besides, in data set [1], the rat_fu is listed as <0.1%. The same compound returned a rat_CLt in data set [2] of 0.71 mL/min/kg.
In the case of `COc1ccc(S(=O)(=O)N(CC(C)C)CC(O)C(Cc2ccc(N3CCC(Oc4ccc(-c5sc6c(c5C(=O)O)CC(C)(C)CC6)cc4)C3)cc2)NC(=O)OC2COC3(C)OCCC23)cc1` (stereo not drawn) [Compound I-351], on HIV-1 PR, 5.09 nM corresponded to half-maximal inhibition (IC50). Further, the rat_fu in data set [1] is reported as <0.1%. This compound showed a rat_CLt in data set [2] of 3.08 mL/min/kg.
In the same order, the values of `CCN(Cc1ccccc1-c1sc2c(c1C(=O)O)CC(C)(C)CC2)c1ccc(CC(NC(=O)OC2COC3(C)OCCC23)C(O)CN(CC(C)C)S(=O)(=O)c2ccc(OC)cc2)cc1` (stereo not drawn) [Compound I-352] are 4.22 nM, <0.1% and 3.26 mL/min/kg.
Regarding `COc1ccc(S(=O)(=O)N(CC(C)C)CC(O)C(Cc2ccc(OC3CN(c4cc(C(F)(F)F)ccc4-c4sc5c(c4C(=O)O)CC(C)(C)CC5)C3)cc2)NC(=O)OC2COC3(C)OCCC23)cc1` (stereo not drawn) [Compound I-354], the IC50 on HIV-1 PR turned out to be 44.2 nM. For the same compound, in data set [1], the rat_fu was <0.1%. Moreover, in data set [2], the rat_CLt stood at 0.0682 mL/min/kg.
The compound `COc1ccc(S(=O)(=O)N(CC(C)C)CC(O)C(Cc2ccc(N3CC(Oc4ccccc4-c4sc5c(c4C(=O)O)CC(C)(C)CC5)C3)cc2)NC(=O)OC2COC3(C)OCCC23)cc1` (stereo not drawn) [Compound I-357] showed an IC50 against HIV-1 PR of 4.41 nM. In addition, in data set [1], the rat_fu is <0.1%. The rat_CLt in data set [2] was determined as 1.55 mL/min/kg.
With `COc1ccc(S(=O)(=O)N(CC(C)C)CC(O)C(Cc2ccc(NCC3=C(c4sc5c(c4C(=O)O)CC(C)(C)CC5)CCOC3)cc2)NC(=O)OC2COC3(C)OCCC23)cc1` (stereo not drawn) [Compound I-362], at HIV-1 PR, the IC50 was 3.07 nM. In addition, the rat_fu in data set [1] is given as <0.1%. For the same compound, the rat_CLt in data set [2] is 4.62 mL/min/kg.
In the same order, the values of `COc1ccc(S(=O)(=O)N(CC(C)C)CC(O)C(Cc2ccc(N(C)CC3=C(c4sc5c(c4C(=O)O)CC(C)(C)CC5)CCOC3)cc2)NC(=O)OC2COC3(C)OCCC23)cc1` (stereo not drawn) [Compound I-363] are 3.36 nM, <0.1% and 3.39 mL/min/kg.
The corresponding values for `COc1ccc(S(=O)(=O)N(CC2CCCC2)CC(O)C(Cc2ccc(OCc3cc(C(F)(F)F)ccc3-n3nc4c(c3C(=O)O)CC(C)(C)CC4)cc2)NC(=O)OC2COC3(C)OCCC23)cc1` (stereo not drawn) [Compound I-365] are 3.2 nM, <0.1% and 0.119 mL/min/kg.
In the same order, the values of `COc1ccc(S(=O)(=O)N(CC(C)C)CC(O)C(Cc2ccc(N(C)CC3CCCCC3c3sc4c(c3C(=O)O)CC(C)(C)CC4)cc2)NC(=O)OC2COC3(C)OCCC23)cc1` (stereo not drawn) [Compound I-374] are 4.35 nM, <0.1% and 3.94 mL/min/kg.
As for `COc1ccc(S(=O)(=O)N(CC(C)C)CC(O)C(Cc2ccc(CN(C)c3ccc(-c4sc5c(c4C(=O)O)CC(C)(C)CC5)c(C)c3)cc2)NC(=O)OC2COC3(C)OCCC23)cc1` (stereo not drawn) [Compound I-376], half-maximal inhibition against HIV-1 PR (IC50) was put at 9.86 nM. In addition, the rat_fu in data set [1] was <0.1%. Moreover, the rat_CLt in data set [2] came out at 0.485 mL/min/kg.
In the same order, the values of `COc1ccc(S(=O)(=O)N(CC(C)C)CC(O)C(Cc2ccc(NCc3cc(C(F)(F)F)ccc3-n3nc4c(c3C(=O)O)CC(C)(C)CC4)cc2)NC(=O)OC2COC3(C)OCCC23)cc1` (stereo not drawn) [Compound I-378] are 4.1 nM, <0.1% and 0.173 mL/min/kg.

For orientation: IC50 means the concentration needed to halve the response being measured. A lower IC50 goes with higher potency.

The values above are taken from patent publication US20170253607A1, “LONG-ACTING HIV PROTEASE INHIBITOR” (Shionogi & Co., Ltd., priority 2014, published 2017).
